US20170291875A1, “QUINOLONES AS INHIBITORS OF CLASS IV BROMODOMAIN PROTEINS” (UCL BUSINESS PLC, priority 2014, published 2017)

Tests used:
BRD1 = biological target: T1, BRD1 (Homo sapiens, UniProt O95696); assay: BROMOscan bromodomain competitive binding assay (DiscoveRx), BRD1; settings: BROMOscan platform, n = 2
T1 construct: purchased DiscoveRx (BROMOscan platform); host or cells: E. coli host derived from BL21 (T7 phage)
T1 sequence (O95696 562-666 limits assumed): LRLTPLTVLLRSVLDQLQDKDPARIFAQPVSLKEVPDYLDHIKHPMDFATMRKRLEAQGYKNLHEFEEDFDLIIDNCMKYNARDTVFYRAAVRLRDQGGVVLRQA
Description: (§1) Compounds were tested using the commercially available BROMOscan™ Platform (DiscoveRx): http://www.discoverx.com/technologies-platforms/competitive-binding-technology/bromoscan-technology-platform/bromoscan-assay-process.
(§2) Bromodomain assays. T7 phage strains displaying bromodomains were grown in parallel in 24-well blocks in an E. coli host derived from the BL21 strain. E. coli were grown to log-phase and infected with T7 phage from a frozen stock (multiplicity of infection=0.4) and incubated with shaking at 32° C. until lysis (90-150 minutes). The lysates were centrifuged (5,000×g) and filtered (0.2 μm) to remove cell debris. […] The liganded beads were blocked with excess biotin and washed with blocking buffer (SeaBlock (Pierce), 1% BSA, 0.05% Tween 20, 1 mM DTT) to remove unbound ligand and to reduce non-specific phage binding. […] Test compounds were prepared as 1000× stocks in 100% DMSO and subsequently diluted 1:10 in monoethylene glycol (MEG) to create stocks at 100× the screening concentration (resulting stock solution is 10% DMSO/90% MEG). The compounds were then diluted directly into the assays such that the final concentration of DMSO and MEG were 0.1% and 0.9%, respectively. All reactions were performed in polystyrene 96-well plates in a final volume of 0.135 ml. […] The bromodomain concentration in the eluates was measured by qPCR.
(§3) An 11-point 3-fold serial dilution of each test compound was prepared in 100% DMSO at 1000× final test concentration. This serial is then diluted to 100× in ethylene glycol and subsequently diluted to 1× in the assay (final DMSO concentration=0.1%, Ethylene glycol concentration=0.9%). Most Kds were determined using a compound top concentration=10,000 nM.
(§4) Binding constants (Kds) were calculated with a standard dose-response curve using the Hill equation: […]
(§5) The Hill Slope was set to −1. Curves were fitted using a non-linear least square fit with the Levenberg-Marquardt algorithm.
(§6) BROMOscan™ uses the same assay technology as KINOMEscan™. For a more detailed description of this assay technology, see Fabian et al.12

BRPF1B = biological target: T2, BRPF1B (Homo sapiens, UniProt P55201); assay: BROMOscan bromodomain competitive binding assay (DiscoveRx), BRPF1B; settings: BROMOscan platform, n = 2 unless cell says n = 4
T2 construct: purchased DiscoveRx (BROMOscan platform); host or cells: E. coli host derived from BL21 (T7 phage)
T2 sequence (P55201 628-732 limits assumed): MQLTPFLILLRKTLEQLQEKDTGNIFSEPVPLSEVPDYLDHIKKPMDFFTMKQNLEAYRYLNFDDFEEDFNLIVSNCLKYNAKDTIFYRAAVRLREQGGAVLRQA
Description: as §1, §2, §3, §4, §5, §6

BRPF3 = biological target: T3, BRPF3 (Homo sapiens, UniProt Q9ULD4); assay: BROMOscan bromodomain competitive binding assay (DiscoveRx), BRPF3; settings: BROMOscan platform, n = 2
T3 construct: purchased DiscoveRx (BROMOscan platform); host or cells: E. coli host derived from BL21 (T7 phage)
T3 sequence (Q9ULD4 589-693 limits assumed): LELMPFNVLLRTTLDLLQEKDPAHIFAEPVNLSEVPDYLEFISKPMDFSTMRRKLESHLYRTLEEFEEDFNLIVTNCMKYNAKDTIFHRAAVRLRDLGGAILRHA
Description: as §1, §2, §3, §4, §5, §6

BRD9 = biological target: T4, BRD9 (Homo sapiens, UniProt Q9H8M2); assay: BROMOscan bromodomain competitive binding assay (DiscoveRx), BRD9; settings: BROMOscan platform, n = 2
T4 construct: purchased DiscoveRx (BROMOscan platform); host or cells: E. coli host derived from BL21 (T7 phage)
T4 sequence (Q9H8M2 136-240 limits assumed): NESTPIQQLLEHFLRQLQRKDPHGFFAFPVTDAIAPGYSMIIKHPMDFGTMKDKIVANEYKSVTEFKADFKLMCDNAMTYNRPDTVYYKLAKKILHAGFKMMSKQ
Description: as §1, §2, §3, §4, §5, §6

Kd (BRD1) [nM] | Kd (BRPF1B) [nM] | Kd (BRPF3) [nM] | Kd (BRD9) [nM] | SMILES
1400 | 65 | 7600 |  | Cn1c(=O)ccc2cc(NS(=O)(=O)c3ccccc3)ccc21 [Compound 1, N-(1-methyl-2-oxo-1,2-dihydroquinolin-6-yl)benzenesulfonamide]
1700 | 430 |  |  | Cn1c(=O)ccc2cc(NS(=O)(=O)c3ccccc3C#N)ccc21 [Compound 2, 2-cyano-N-(1-methyl-2-oxo-1,2-dihydroquinolin-6-yl)benzenesulfonamide]
270 | 56 |  |  | Cn1c(=O)ccc2cc(NS(=O)(=O)c3cccc(C#N)c3)ccc21 [Compound 3, 3-cyano-N-(1-methyl-2-oxo-1,2-dihydroquinolin-6-yl)benzenesulfonamide]
200 | 43 | 1000 | 910 | Cn1c(=O)ccc2cc(NS(=O)(=O)c3ccc(C#N)cc3)ccc21 [Compound 4, 4-cyano-N-(1-methyl-2-oxo-1,2-dihydroquinolin-6-yl)benzenesulfonamide]
230 | 44 |  |  | Cn1c(=O)ccc2cc(NS(=O)(=O)c3ccc(Cl)c(Cl)c3)ccc21 [Compound 9, 3,4-dichloro-N-(1-methyl-2-oxo-1,2-dihydroquinolin-6-yl)benzenesulfonamide]
380 | 29 | 2200 |  | COc1cc2c(ccc(=O)n2C)cc1NS(=O)(=O)c1ccccc1 [Compound 10, N-(7-methoxy-1-methyl-2-oxo-1,2-dihydroquinolin-6-yl)benzenesulfonamide]
520 | 53 | 2200 | 2700 | COc1cc2c(ccc(=O)n2C)cc1NS(=O)(=O)c1ccc(C#N)cc1 [Compound 11, 4-cyano-N-(7-methoxy-1-methyl-2-oxo-1,2-dihydroquinolin-6-yl)benzenesulfonamide]
 | 55 |  |  | CCOc1cc2c(ccc(=O)n2C)cc1NS(=O)(=O)c1ccc(C#N)cc1 [Compound 13, 4-cyano-N-(7-ethoxy-1-methyl-2-oxo-1,2-dihydroquinolin-6-yl)benzenesulfonamide]
 | 39 |  |  | CC(C)Oc1cc2c(ccc(=O)n2C)cc1NS(=O)(=O)c1ccc(C#N)cc1 [Compound 14, 4-cyano-N-(7-isopropoxy-1-methyl-2-oxo-1,2-dihydroquinolin-6-yl)benzenesulfonamide]
210 | 46 |  |  | COc1c(NS(=O)(=O)c2ccc(C#N)cc2)ccc2c1ccc(=O)n2C [Compound 16, 4-cyano-N-(5-methoxy-1-methyl-2-oxo-1,2-dihydroquinolin-6-yl)benzenesulfonamide]
840 | 210 |  |  | Cn1c(=O)ccc2c(Br)c(NS(=O)(=O)c3ccc(C#N)cc3)ccc21 [Compound 18, N-(5-bromo-1-methyl-2-oxo-1,2-dihydroquinolin-6-yl)-4-cyanobenzenesulfonamide]
190 | 17 | 590 |  | COc1cc2c(cc1NS(=O)(=O)c1ccccc1)cc(C)c(=O)n2C [Compound 21, N-(7-methoxy-1,3-dimethyl-2-oxo-1,2-dihydroquinolin-6-yl)benzenesulfonamide]
100 | 15 | 280 |  | COc1cc2c(cc1NS(=O)(=O)c1ccc(C#N)cc1)cc(C)c(=O)n2C [Compound 22, 4-cyano-N-(7-methoxy-1,3-dimethyl-2-oxo-1,2-dihydroquinolin-6-yl)benzenesulfonamide]
 | 420 |  |  | COc1cc2c(cc1NS(=O)(=O)c1ccc(N)cc1)cc(C)c(=O)n2C [Compound 25, 4-amino-N-(7-methoxy-1,3-dimethyl-2-oxo-1,2-dihydroquinolin-6-yl)benzenesulfonamide]
150 | 24 |  |  | Cc1cc(=O)n(C)c2ccc(NS(=O)(=O)c3ccc(C#N)cc3)cc12 [Compound 30, 4-cyano-N-(1,4-dimethyl-2-oxo-1,2-dihydroquinolin-6-yl)benzenesulfonamide]
6700 | 910 |  |  | CN(c1ccc2c(ccc(=O)n2C)c1)S(=O)(=O)c1ccc(C#N)cc1 [Compound 34, 4-cyano-N-methyl-N-(1-methyl-2-oxo-1,2-dihydroquinolin-6-yl)benzenesulfonamide]

Kd (BRD1) [nM] | Kd (BRPF1B) [nM] | Kd (BRPF3) [nM] | Kd (BRD9) [nM] | SMILES
390 | 47 |  |  | CCn1c(=O)ccc2cc(NS(=O)(=O)c3ccc(C#N)cc3)ccc21 [Compound 35, 4-cyano-N-(1-ethyl-2-oxo-1,2-dihydroquinolin-6-yl)benzenesulfonamide]
150 | 100 |  |  | Cn1c(=O)ccc2cc(S(=O)(=O)Nc3ccc(C#N)cc3)ccc21 [Compound 38, N-(4-cyanophenyl)-1-methyl-2-oxo-1,2-dihydroquinoline-6-sulfonamide]
 | 66 |  |  | CCc1cc2cc(NS(=O)(=O)c3ccc(C#N)cc3OC)ccc2n(C)c1=O [Compound 45, 4-cyano-N-(3-ethyl-1-methyl-2-oxo-1,2-dihydroquinolin-6-yl)-2-methoxybenzenesulfonamide]
 | 10 |  |  | COc1cc(C#N)ccc1S(=O)(=O)Nc1cc(F)c2c(c1)cc(C)c(=O)n2C [Compound 49, 4-cyano-N-(8-fluoro-1,3-dimethyl-2-oxo-1,2-dihydroquinolin-6-yl)-2-methoxybenzenesulfonamide]
 | 140 |  |  | COc1cc2c(cc1NS(=O)(=O)c1ccc(C#N)cc1)c(C)c(C)c(=O)n2C [Compound 50, 4-cyano-N-(7-methoxy-1,3,4-trimethyl-2-oxo-1,2-dihydroquinolin-6-yl)benzenesulfonamide]
 | 2200 |  |  | Cn1c(=O)ccc2cc(NS(C)(=O)=O)ccc21 [Compound 51, N-(1-methyl-2-oxo-1,2-dihydroquinolin-6-yl)methanesulfonamide]
 | 1200 |  |  | CCS(=O)(=O)Nc1ccc2c(ccc(=O)n2C)c1 [Compound 52, N-(1-methyl-2-oxo-1,2-dihydroquinolin-6-yl)ethanesulfonamide]
 | 1100 |  |  | CC(C)S(=O)(=O)Nc1ccc2c(ccc(=O)n2C)c1 [Compound 53, N-(1-methyl-2-oxo-1,2-dihydroquinolin-6-yl)propane-2-sulfonamide]
 | 520 |  |  | Cn1c(=O)ccc2cc(NS(=O)(=O)C3CC3)ccc21 [Compound 54, N-(1-methyl-2-oxo-1,2-dihydroquinolin-6-yl)cyclopropanesulfonamide]
 | 380 |  |  | Cn1c(=O)ccc2cc(NS(=O)(=O)C3CCCCC3)ccc21 [Compound 55, N-(1-methyl-2-oxo-1,2-dihydroquinolin-6-yl)cyclohexanesulfonamide]
 | 31 |  |  | Cc1cc2cc(NS(=O)(=O)C3CCCCC3)ccc2n(C)c1=O [Compound 56, N-(1,3-dimethyl-2-oxo-1,2-dihydroquinolin-6-yl)cyclohexanesulfonamide]
 | 52 |  |  | COc1cc(C#N)ccc1S(=O)(=O)N(C)c1ccc2c(c1)cc(C)c(=O)n2C [Compound 59, 4-cyano-N-(1,3-dimethyl-2-oxo-1,2-dihydroquinolin-6-yl)-2-methoxy-N-methylbenzenesulfonamide]
 | 5 |  |  | COc1cc(C(N)=O)ccc1S(=O)(=O)Nc1ccc2c(c1)cc(C)c(=O)n2C [Compound 62, 4-(N-(1,3-dimethyl-2-oxo-1,2-dihydroquinolin-6-yl)sulfamoyl)-3-methoxybenzamide]
 | 48 |  |  | COc1cc2c(cc1NS(=O)(=O)c1ccccc1OC(F)(F)F)cc(C)c(=O)n2C [Compound 67, N-(7-methoxy-1,3-dimethyl-2-oxo-1,2-dihydroquinolin-6-yl)-2-(trifluoromethoxy)benzenesulfonamide]
130 | 9 |  |  | COc1ccccc1S(=O)(=O)Nc1ccc2c(c1)cc(C)c(=O)n2C [Compound P-001, N-(1,3-dimethyl-2-oxo-1,2-dihydroquinolin-6-yl)-2-methoxybenzenesulfonamide, reference compound]
